The text below walks through data of patent publication US12428370B2, “Haloallylamine dual amine oxidase inhibitors” (Syntara Limited, priority 2020, dated 2025).

Series [1] in a line: Pharmacokinetic study in Wistar rats, oral gavage. The settings on record: oral gavage at 3 mg/kg, plasma, FIG. 1. The series is classed as in vivo. How it is done:
Pharmacokinetic (PK) studies were carried out at Sundia MediTech Co. Ltd., Shanghai. […] At various times between 15 minutes and 8 hours, blood samples were collected by tail vein bleed. Plasma was analyzed by high performance liquid chromatography-tandem mass spectrometry using a Shimadzu LC30AD HPLC and a QTRAP 5500 mass spectrometer. The time course and basic PK parameters thus obtained are outlined in FIG. 1.

The next series relates to phospholipidosis. The series can be described thus: Phospholipidosis cell-based fluorescence assay. The settings on record: concentrations up to 100 μM. On the procedure:
Assessment of the Potential of Compound 1 to Induce Phospholipidosis in a Cell-Based Fluorescence Assay.
Compound 1 was tested in vitro for the potential to induce phospholipidosis according to the method outlined by Fujimura et. al. (Experimental and Toxicologic Pathology, 2007, 58, 375-382) at concentrations up to 100 μM.

Series [2] concerns Salmonella typhimurium strains TA98, TA100 and Escherichia. coli WP2 uvrA pKM101. The experiment in a line: Miniaturized bacterial reverse mutagenicity screening assay. The format is cell-based. The settings on record: 7.81-1000 μg/well, presence and absence of S9 metabolic activation. On the procedure:
Compound 1 was tested for mutagenic potential in a miniaturized reverse mutation assay using Salmonella typhimurium strains TA98, TA100 and Escherichia. coli WP2 uvrA pKM101 in the presence and absence of a metabolic activation system. The test article was formulated in dimethylsulfoxide (DMSO) at nominal concentration of 50 mg/mL and serial dilutions were made from this stock solution. Final dosing concentrations were 1000, 500, 250, 125, 62.5, 31.3, 15.6 and 7.81 μg/well for the test article. Metabolic activation was provided using an S9 mix containing 10% v/v Aroclor-1254-induced rat liver S9 (Regensys System reagents, Moltox, Boone, NC).

The target in series [3] is T1, human recombinant SSAO/VAP-1 (Homo sapiens, UniProt Q16853).
T1 construct: a cloned cDNA template corresponding to residues 34-763 of human SSAO/VAP-1; TEV cleavage site (N); made in house
T1 sequence (Q16853 34-763): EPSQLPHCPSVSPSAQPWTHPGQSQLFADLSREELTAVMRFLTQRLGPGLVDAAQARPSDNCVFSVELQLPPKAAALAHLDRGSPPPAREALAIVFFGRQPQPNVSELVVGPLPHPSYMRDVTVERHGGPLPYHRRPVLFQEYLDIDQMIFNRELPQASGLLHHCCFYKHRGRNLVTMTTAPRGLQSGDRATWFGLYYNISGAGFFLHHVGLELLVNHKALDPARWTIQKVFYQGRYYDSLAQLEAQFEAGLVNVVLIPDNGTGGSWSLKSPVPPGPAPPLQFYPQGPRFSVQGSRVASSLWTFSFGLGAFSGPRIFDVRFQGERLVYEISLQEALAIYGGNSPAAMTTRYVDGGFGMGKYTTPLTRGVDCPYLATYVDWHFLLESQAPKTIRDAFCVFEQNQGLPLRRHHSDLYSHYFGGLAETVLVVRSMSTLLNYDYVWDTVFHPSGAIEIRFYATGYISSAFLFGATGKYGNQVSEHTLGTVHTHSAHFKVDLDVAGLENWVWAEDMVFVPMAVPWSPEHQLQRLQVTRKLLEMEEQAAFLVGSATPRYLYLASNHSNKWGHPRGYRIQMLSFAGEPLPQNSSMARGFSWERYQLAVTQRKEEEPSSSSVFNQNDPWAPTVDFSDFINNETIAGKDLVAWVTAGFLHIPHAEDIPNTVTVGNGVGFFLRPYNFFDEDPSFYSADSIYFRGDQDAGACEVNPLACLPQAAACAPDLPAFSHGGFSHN
The experiment in a line: Inhibition of human recombinant SSAO/VAP-1 (Amplex Red fluorometric assay). The format is biochemical. The settings on record: 30 min incubation, 37° C., benzylamine substrate. On the procedure: Method to Determine the Ability of Compounds of Formula I to Inhibit Human Recombinant SSAO/VAP-1
Human recombinant SSAO/VAP-1 amine oxidase activity was determined using the method as described for monoamine oxidase, copper-containing amine oxidases and related enzymes (Holt A. and Palcic M., Nat. Protoc. 2006, 1, 2498-2505). Briefly, a cloned cDNA template corresponding to residues 34-763 of human SSAO/VAP-1, and incorporating a mouse Ig kappa (κ) signal sequence, N-terminal flag epitope tag and tobacco etch virus (TEV) cleavage site, was assembled in a mammalian expression vector (pLO-CMV) by Geneart AG. This vector containing human SSAO/VAP-1 residues was transfected into CHO-K1 glycosylation mutant cell line, Lec 8. A clone stably expressing human SSAO/VAP-1 was isolated and cultured in large scale. Active human SSAO/VAP-1 was purified and recovered using immunoaffinity chromatography. This was used as the source for SSAO/VAP-1 activity. A high-throughput colorimetric assay was developed using either 96 or 384 well format. Briefly, in a standard 96 well plate assay 50 μL of purified human SSAO/VAP-1 (0.25 μg/mL) in 0.1 M sodium phosphate buffer (pH 7.4) was added into each well. […] After 30 min incubation, 50 μL of the reaction mixture containing 600 μM benzylamine (Sigma Aldrich), 120 μM Amplex Red (Sigma Aldrich) and 1.5 U/mL horseradish peroxidase (Sigma Aldrich) prepared in 0.1 M sodium phosphate buffer (pH 7.4) were added to the corresponding well. The fluorescence unit (RFU) was read every 2.5 min for 30 min at 37° C. excitation 565 nm and emission 590 nm (Optima; BMG labtech). The slope of the kinetics for each well was calculated using MARS data analysis software (BMG labtech) and this value was used to deduce the IC50 value (Dotmatics).

Series [4] in a line: Stability of Compound 1 in a grape syrup formulation. The series is classed as physicochemical. On the procedure: Methylparahydroxybenzoate (126.2 mg), propylparahydroxybenzoate (20.0 mg), sodium phosphate monobasic (1%, 1.0 g) and saccharose (16.56 g) were dissolved in 100 mL purified water, vortexed for 10 min, followed by sonication for 30 min, and then filtered through a 0.45 μm filter. pH adjusted to pH 5 using 0.5 M NaOH. To 50 mL of the resultant solution was added grape flavor (LorAnnOils, 0180-0800; 1%, 0.5 mL), followed by 50 mg of Compound 1 to attain a final concentration of 1 mg/mL. Split into two 25 mL portions, one frozen, and one left at room temperature (rt) in a sealed falcon tube.

Counter-ions that a name gives are not always drawn.

Turning to `NC/C(=C\F)C1Cc2ccccc2O1` (single isomer, unassigned; (-)) [PXS-5131, (−)-(E)-2-(2,3-Dihydrobenzofuran-2-Yl)-3-Fluoroprop-2-En-1-Amine Hydrochloride], the pharmacokinetic profile result in series [1] is recorded as “inferior to Compound 1”.

In the case of `N#Cc1ccc(OC/C(=C/F)CN)cc1` [Compound 1, (E)-4-((2-(aminomethyl)-3-fluoroallyl)oxy) benzonitrile], in the series with phospholipidosis, the “effect on cell viability” value is given as “no effect” and the “effect on the cellular phenotype (phospholipidosis)” value is “no effect”. Also, the mutagenic potential result in series [2] is given as “did not induce a response indicative of mutagenic potential”. Also, in series [3], the IC50 (as a rule, the concentration that inhibits the measured activity by half) was under 10 nM. In series [4] (91 days at room temperature), the “degradation in grape syrup formulation” value is given as “no discernible degradation”. Besides, in series [4] (grape syrup formulation 1 mg/mL, pH 5, rt, 91 days), the “Purity of Compound 1 stored at rt for 91 days as measured by HPLC/area under the curve at 265 nm” value is recorded as 99.785%. Moreover, in series [4] (grape syrup formulation 1 mg/mL, pH 5, −20° C., 91 days), the “Purity of Compound 1 stored at −20° C. for 91 days as measured by HPLC/area under the curve at 265 nm” value was 99.781%.
